Test results reported in US12583870B2, “Azaheteroaryl compound and application thereof” (SHANGHAI BLUERAY BIOPHARMA CO., LTD., priority 2019, dated 2026).

Legend:
[1] = tested on: trimethylation level of histone H3K27 in G401 cells; test: ELISA (H3K27 trimethylation) analysis in G401 cells; assay type: cell-based; settings: Homo sapiens, G-401, 72 hours, H3K27me3 standardized to H3
Description: 3-fold series dilution with DMSO was carried out on the representative compounds of the present disclosure; and 10 concentration gradients were detected for each compound, with the highest detection concentration of 10 μM. The compounds were diluted 200-fold into the G401 cells cultured in a 96-well plate (DMSO at a final concentration of 0.5%). After the cells, administered with the compound, were cultured for 72 hours, the trimethylation level of the histone H3K27 was detected using the ELISA method.
Extraction of the histone: in a 96-well plate, the compound-treated cells were washed three times with 1×PBS (10×PBS buffer (80 g NaCl (Sigma, product number S3014), 2 g KCl (Sigma, product number 60128), 14.4 g Na2HPO4 (Sigma, product number S5136), and 2.4 g KH2PO4 (Sigma, product number P9791) in 1 L of water, adjusting the pH to 7.4)). 100 μL of 0.4 N HCl was added into each well. The plate was placed at 4° C. and gently agitated for 2 hours to lyse the cells. The cell lysate was then neutralized with 80 μL of neutralization buffer (0.5 M disodium hydrogen phosphate, pH 12.5, 2.5 mM DTT; 1% cocktail (Sigma, product number P8340)) (the cell lysate and the neutralization buffer were thoroughly mixed to uniformity).
ELISA detection method: the cell lysate was transferred in parallel to two 384-well detection plates (PerkinElmer, OptiPlate-384HB, product number 6007290), wherein one of the plates was used to detect the H3K27 trimethylation level and the other plate was used to determine the level of H3. PBS was used to adjust the final volume to 50 μL/well. The plates were coated at 4° C. overnight. On the following day, the solution inside the wells was discarded and the plates were washed 5 times with TBST buffer (1×TBS (10×TBS: 24.2 g Tris (Sigma, product number T6066), 80 g NaCl (Sigma, product number S3014) in 1 L of water, adjusting the pH with HCl to 7.6), 0.1% Tween-20) and dried on an absorbent paper by inversion. 70 μL of blocking buffer (TBST, 5% BSA) was added into the coated reaction wells and the plates were incubated at room temperature for 1 hour. The blocking buffer was discarded and primary antibodies were added (30 μL/well). The desired primary antibodies were all diluted with a blocking buffer and the dilution factor was as follows: anti-H3K27me3 antibody (Cell Signaling Technology, product number 9733), 1:2000 dilution; anti-H3 antibody (Cell Signaling Technology, product number 4499), 1:10000 dilution. After the primary antibodies were added, the plates were placed at room temperature and incubated for 1 hour. After the plates were washed with TBST 5 times, the plates were dried by inversion. A secondary antibody (30 μL/well) was added to each of the reaction wells and the plates were incubated at room temperature for 1 hour. The secondary antibody (anti-rabbit antibody (Jackson ImmunoResearch, product number 111-035-003)) was diluted 2000-fold with a blocking buffer before use. After 1 hour, the plates were washed with TBST and dried by inversion. 30 μL of ECL substrate (Pierce, product number 34080) was added into each well and centrifuged at 2000 rpm for 30 seconds. The signal of each sample was detected using SpectraMax (Molecular Devices). Data processing: H3K27 methylation readings were first standardlized using H3 signals and 0.5% DMSO-treated samples was used as the control to calculate the inhibition percentage of the compounds. Data were fit to obtain Dose-Response curves using the GraphPad prism 5 program and the IC50 values of the test compounds were obtained.

KARPAS-422 cells = test: Cell proliferation analysis, KARPAS-422, 13 days, CellTiter-Glo; assay type: cell-based; settings: Homo sapiens, 312 h
Description: Human B-cell non-Hodgkin lymphoma cells, KARPAS-422 S, were cultured in a culture flask using standard cell culture conditions. The medium contained 15% fetal bovine serum (FBS, Invitrogen, product number 10099-141) and 1% penicillin/streptomycin solution (P/S) RPMI-1640 (Invitrogen, product number 11875), and the culture flask was placed and cultured in a sterile incubator at the temperature of 37° C. and […] with a relative humidity of […] To detect the effect of PRC2 inhibitors on cell proliferation, cells in exponential growth phase were taken and seeded into a 96-well plate (Corning, product number 3904) at a density of 1×10^4 cells/well, and 100 μL of the medium was added into each well. Subsequently, the compounds at different concentrations disclosed in the present disclosure were added into the wells where cells had already been seeded (9 concentration gradients were provided for each compound, with the highest detection concentration at 10 μM, 3-fold gradient dilution) and two replicates in parallel were provided for each treatment concentration. DMSO was at a final concentration of 0.5%. Afterwards, viable cell numbers were determined using Vi-CELL (Beckman Coulter) every 3-4 days. Cells counted were seeded into a new 96-well plate at the same density (1×10^4 cells/well) each time. The wells were supplemented with a fresh medium to 100 μL and at the same time, compounds at different concentrations were added. The cells were cultured to day 13. 100 μL of CellTiter-Glo (CellTiter-GloCellTiter-GloCellTiter-GloCTG) (Promega, product number G7573) was added into each well. The plate was placed in the dark at room temperature for 10-20 minutes and the luminescence signal was read using SpectraMax i3× (Molecular Devices).

| IC50 [1] | IC50 (KARPAS-422 cells) | Compound |
| --- | --- | --- |
| 0.0008 µM |  | Cc1ccc(-c2cnc(NCc3c(F)ccc4c3CCO4)n3cnnc23)c2nnc(C)n12 |
| 0.0004 µM | 0.0002 µM | CC(C)(O)c1ccc(-c2cnc(NCc3c(F)ccc4c3CCO4)n3cnnc23)c2ncnn12 [2-(8-(5-(((5-fluoro-2,3-dihydrobenzofuran-4-yl)methyl)amino)-[1,2,4]triazolo[4,3-c]pyrimidin-8-yl)-[1,2,4]triazolo[1,5-a]pyridin-5-yl)propan-2-ol] |
| 0.0007 µM | 0.0005 µM | CN(C)Cc1ccc(-c2cnc(NCc3c(F)ccc4c3CCO4)n3cnnc23)c2ncc(C#N)n12 [5-((dimethylamino)methyl)-8-(5-(((5-fluoro-2,3-dihydrobenzofuran-4-yl)methyl)amino)-[1,2,4]triazolo[4,3-c]pyrimidin-8-yl)imidazo[1,2-a]pyridine-3-carbonitrile] |
| 0.0009 µM | 0.0009 µM | CN(C)c1ccc(-c2cnc(NCc3c(F)ccc4c3CCO4)n3cnnc23)c2ncc(C#N)n12 [5-(dimethylamino)-8-(5-(((5-fluoro-2,3-dihydrobenzofuran-4-yl)methyl)amino)-[1,2,4]triazolo[4,3-c]pyrimidin-8-yl)imidazo[1,2-a]pyridine-3-carbonitrile] |
| 0.0055 µM |  | Fc1ccc2c(c1CNc1ncc(-c3ccc(C(F)F)n4ncnc34)c3nncn13)CCO2 [8-(5-(difluoromethyl)-[1,2,4]triazolo[1,5-a]pyridin-8-yl)-N-((5-fluoro-2,3-dihydrobenzofuran-4-yl)methyl)-[1,2,4]triazolo[4,3-c]pyrimidin-5-amine] |
| 0.0006 µM |  | Cc1nc2c(-c3cnc(NCc4c(F)ccc5c4CCO5)n4cnnc34)ccc(N(C)C)n2n1 [8-(5-(dimethylamino)-2-methyl-[1,2,4]triazolo[1,5-a]pyridin-8-yl)-N-((5-fluoro-2,3-dihydrobenzofuran-4-yl)methyl)-[1,2,4]triazolo[4,3-c]pyrimidin-5-amine] |
| 0.0028 µM |  | CN(C)c1c(F)cc(-c2cnc(NCc3c(F)ccc4c3CCO4)n3cnnc23)c2ncnn12 [8-(5-(dimethylamino)-6-fluoro-[1,2,4]triazolo[1,5-a]pyridin-8-yl)-N-((5-fluoro-2,3-dihydrobenzofuran-4-yl)methyl)-[1,2,4]triazolo[4,3-c]pyrimidin-5-amine] |
| 0.0018 µM |  | CN(C)c1ncc(-c2cnc(NCc3c(F)ccc4c3CCO4)n3cnnc23)c2ncnn12 [8-(5-(dimethylamino)-[1,2,4]triazolo[1,5-c]pyrimidin-8-yl)-N-((5-fluoro-2,3-dihydrobenzofuran-4-yl)methyl)-[1,2,4]triazolo[4,3-c]pyrimidin-5-amine] |
| 0.0078 µM |  | CN(C)c1ccc(-c2cnc(NCc3c(F)ccc4c3CCO4)n3cnnc23)c2nncn12 [8-(5-(dimethylamino)-[1,2,4]triazolo[4,3-a]pyridin-8-yl)-N-((5-fluoro-2,3-dihydrobenzofuran-4-yl)methyl)-[1,2,4]triazolo[4,3-c]pyrimidin-5-amine] |

More lines, now with the values behind:

| Compound | IC50 [1] | IC50 (KARPAS-422 cells) |
| --- | --- | --- |
| CC(C)(O)COCc1ccc(-c2cnc(NCc3c(F)ccc4c3CCO4)n3cnnc23)c2ncnn12 [1-((8-(5-(((5-fluoro-2,3-dihydrobenzofuran-4-yl)methyl)amino)-[1,2,4]triazolo[4,3-c]pyrimidin-8-yl)-[1,2,4]triazolo[1,5-a]pyridin-5-yl)methoxy)-2-methylpropan-2-ol] | 0.0064 µM | 0.0012 µM |
| CC(C)(O)CNCc1ccc(-c2cnc(NCc3c(F)ccc4c3CCO4)n3cnnc23)c2ncnn12 [1-(((8-(5-(((5-fluoro-2,3-dihydrobenzofuran-4-yl)methyl)amino)-[1,2,4]triazolo[4,3-c]pyrimidin-8-yl)-[1,2,4]triazolo[1,5-a]pyridin-5-yl)methyl)amino)-2-methylpropan-2-ol] | 0.0022 µM | 0.0021 µM |
| Cc1ccc(-c2cnc(NCc3c(F)ccc4c3CCO4)n3cnnc23)c2ncc(CC(=O)N3CCOCC3)n12 [2-(8-(5-(((5-fluoro-2,3-dihydrobenzofuran-4-yl)methyl)amino)-[1,2,4]triazolo[4,3-c]pyrimidin-8-yl)-5-methylimidazo[1,2-a]pyridin-3-yl)-1-morpholinoethan-1-one] | 0.0143 µM | 0.0057 µM |
| Cc1ccc(-c2cnc(NCc3c(F)ccc4c3CCO4)n3cnnc23)c2ncc(CC#N)n12 [2-(8-(5-(((5-fluoro-2,3-dihydrobenzofuran-4-yl)methyl)amino)-[1,2,4]triazolo[4,3-c]pyrimidin-8-yl)-5-methylimidazo[1,2-a]pyridin-3-yl)acetonitrile] | 0.007 µM | 0.0014 µM |
| CN(C)C(=O)c1cnc2c(-c3cnc(NCc4c(F)ccc5c4CCO5)n4cnnc34)cc(F)cn12 [6-fluoro-8-(5-(((5-fluoro-2,3-dihydrobenzofuran-4-yl)methyl)amino)-[1,2,4]triazolo[4,3-c]pyrimidin-8-yl)-N,N-dimethylimidazo[1,2-a]pyridine-3-carboxamide] | 0.0047 µM | 0.0024 µM |
| N#Cc1cnc2c(-c3cnc(NCc4c(F)ccc5c4CCO5)n4cnnc34)cc(F)cn12 [6-fluoro-8-(5-(((5-fluoro-2,3-dihydrobenzofuran-4-yl)methyl)amino)-[1,2,4]triazolo[4,3-c]pyrimidin-8-yl)imidazo[1,2-a]pyridine-3-carbonitrile] | 0.0089 µM | 0.0083 µM |
| N#Cc1cc(-c2cnc(NCc3c(F)ccc4c3CCO4)n3cnnc23)c2ncnn2c1 [8-(5-(((5-fluoro-2,3-dihydrobenzofuran-4-yl)methyl)amino)-[1,2,4]triazolo[4,3-c]pyrimidin-8-yl)-[1,2,4]triazolo[1,5-a]pyridine-6-carbonitrile] | 0.0143 µM |  |
| CP(C)(=O)c1cnc2c(-c3cnc(NCc4c(F)ccc5c4CCO5)n4cnnc34)cc(F)cn12 [(6-fluoro-8-(5-(((5-fluoro-2,3-dihydrobenzofuran-4-yl)methyl)amino)-[1,2,4]triazolo[4,3-c]pyrimidin-8-yl)imidazo[1,2-a]pyridin-3-yl)dimethylphosphine oxide] | 0.0023 µM |  |
| CCOC(=O)c1cnc2c(-c3cnc(NCc4c(F)ccc5c4CCO5)n4cnnc34)ccc(C)n12 [Ethyl 8-(5-(((5-fluoro-2,3-dihydrobenzofuran-4-yl)methyl)amino)-[1,2,4]triazolo[4,3-c]pyrimidin-8-yl)-5-methylimidazo[1,2-a]pyridine-3-carboxylate] |  | 0.0047 µM |
| Cc1ccc(-c2cnc(NCc3c(F)ccc4c3CCO4)n3cnnc23)c2ncc(S(C)(=O)=O)n12 [N-((5-fluoro-2,3-dihydrobenzofuran-4-yl)methyl)-8-(5-methyl-3-(methylsulfonyl)imidazo[1,2-a]pyridin-8-yl)-[1,2,4]triazolo[4,3-c]pyrimidin-5-amine] | 0.088 µM |  |
